From EP0048613B1, “4-0-Substituted -2-deoxystreptamine aminoglycoside derivatives, their preparation and formulations containing them” (ELI LILLY AND COMPANY, priority 1980, dated 1982)
In brackets after ≈: the same amount, converted by molar mass.

Legend:
[1] = system: Streptococcus pyogenes C203; assay: MIC, standard agar dilution test; type: cell-based
Source text: (§1) The antibacterial activity of the deprotected compounds of this invention is illustrated by the following in vitro and in vivo test data obtained with representative compounds. In Table I, the minimum inhibitory concentration (MIC) for representative compounds against a wide range of gram-positive and gram-negative bacteria is presented. The MIC values were obtained by the standard agar dilution test.

[2] = system: Staphylococcus aureus S13E; assay: MIC, standard agar dilution test; type: cell-based; conditions: for Minimum inhibitory concentration: Staphylococcus aureus S13E, agar dilution
Source text: as §1

[3] = system: Salmonella typhimurium 1335; assay: MIC, standard agar dilution test; type: cell-based
Source text: as §1

[4] = system: Serratia marcescens SE3; assay: MIC, standard agar dilution test; type: cell-based
Source text: as §1

[5] = system: Citrobacter freundii CF17; assay: MIC, standard agar dilution test; type: cell-based
Source text: as §1

[6] = system: Streptococcus group D 9960; assay: MIC, standard agar dilution test; type: cell-based
Source text: as §1

[7] = system: Hemophilus influenzae C.L.; assay: MIC, standard agar dilution test; type: cell-based
Source text: as §1

[8] = system: Pseudomonas aeruginosa X239; assay: MIC, standard agar dilution test; type: cell-based
Source text: as §1

[9] = system: Proteus rettgeri C24; assay: MIC, standard agar dilution test; type: cell-based
Source text: as §1

[10] = system: Staphylococcus aureus X400; assay: MIC, standard agar dilution test; type: cell-based
Source text: as §1

[11] = system: Pseudomonas aeruginosa Ps18; assay: MIC, standard agar dilution test; type: cell-based
Source text: as §1

[12] = system: Klebsiella pneumoniae X26; assay: MIC, standard agar dilution test; type: cell-based
Source text: as §1

[13] = system: Enterobacter aerogenes C32; assay: MIC, standard agar dilution test; type: cell-based
Source text: as §1

[14] = system: Proteus rettgeri PR7; assay: MIC, standard agar dilution test; type: cell-based
Source text: as §1

[15] = system: Hemophilus influenzae 76; assay: MIC, standard agar dilution test; type: cell-based
Source text: as §1

[16] = system: Enterobacter cloacae EB5; assay: MIC, standard agar dilution test; type: cell-based
Source text: as §1

[17] = system: Serratia marcescens X99; assay: MIC, standard agar dilution test; type: cell-based
Source text: as §1

[18] = system: Klebsiella pneumoniae KAE; assay: MIC, standard agar dilution test; type: cell-based
Source text: as §1

[19] = system: Staphylococcus epidermidis EPI2; assay: MIC, standard agar dilution test; type: cell-based
Source text: as §1

[20] = system: Staphylococcus aureus V41; assay: MIC, standard agar dilution test; type: cell-based
Source text: as §1

[21] = system: Shigella sonnei N9; assay: MIC, standard agar dilution test; type: cell-based
Source text: as §1

[22] = system: Proteus morganii PR15; assay: MIC, standard agar dilution test; type: cell-based
Source text: as §1

[23] = system: Staphylococcus epidermidis EPI1; assay: MIC, standard agar dilution test; type: cell-based; conditions: for Minimum inhibitory concentration: Staphylococcus epidermidis EPI1, agar dilution
Source text: as §1

[24] = system: Proteus inconstans PR33; assay: MIC, standard agar dilution test; type: cell-based
Source text: as §1

[25] = system: Salmonella heidelberg X514; assay: MIC, standard agar dilution test; type: cell-based
Source text: as §1

[26] = system: Streptococcus pneumoniae Park I; assay: MIC, standard agar dilution test; type: cell-based; conditions: for Minimum inhibitory concentration: Streptococcus pneumoniae Park I, agar dilution
Source text: as §1

[27] = system: Enterobacter cloacae 265A; assay: MIC, standard agar dilution test; type: cell-based
Source text: as §1

[28] = system: Enterobacter aerogenes EB17; assay: MIC, standard agar dilution test; type: cell-based
Source text: as §1

[29] = system: Streptococcus group D X66; assay: MIC, standard agar dilution test; type: cell-based
Source text: as §1

[30] = system: Enterobacter aerogenes X68; assay: MIC, standard agar dilution test; type: cell-based
Source text: as §1

[31] = system: Pseudomonas aeruginosa X528; assay: MIC, standard agar dilution test; type: cell-based
Source text: as §1

[32] = system: Escherichia coli EC14; assay: MIC, standard agar dilution test; type: cell-based
Source text: as §1

[33] = system: Bordetella bronchiseptica 16; assay: MIC, standard agar dilution test; type: cell-based
Source text: as §1

[34] = system: Staphylococcus aureus X1.1; assay: MIC, standard agar dilution test; type: cell-based
Source text: as §1

[35] = system: Escherichia coli TEM; assay: MIC, standard agar dilution test; type: cell-based; conditions: for Minimum inhibitory concentration: Escherichia coli TEM, agar dilution
Source text: as §1

[36] = system: Escherichia coli N10; assay: MIC, standard agar dilution test; type: cell-based
Source text: as §1

[37] = system: Staphylococcus aureus 3055; assay: Subcutaneous therapy of experimental bacterial infection in mice; type: in vivo; conditions: subcutaneous doses at 1 and 5 hours post infection
Experimental: Table II illustrates the effective dose (ED50, effective dose to protect 50 percent of the test animals) for representative compounds of this invention against an experimental bacterial infection in mice.
The EDso values were determined as described by W. E. Wick et al., Journal of Bacteriology, 81 [No. 2], 233-235 (1961).

[38] = read-out: Minimum inhibitory concentration
[39] = Salmonella enterica, read-out: Minimum inhibitory concentration
[40] = Haemophilus influenzae, read-out: Minimum inhibitory concentration
[41] = Providencia rettgeri, read-out: Minimum inhibitory concentration
[42] = Klebsiella aerogenes, read-out: Minimum inhibitory concentration

2′-N-(RS-γ-Amino-α-hydroxybutyryl)apramycin [Test compound 2]
Minimum inhibitory concentration [1]: 32 µg/mL | Minimum inhibitory concentration [2]: 16 µg/mL | Minimum inhibitory concentration [3]: 32 µg/mL | Minimum inhibitory concentration [4]: 32 µg/mL | Minimum inhibitory concentration [5]: 32 µg/mL | Minimum inhibitory concentration [6]: >128 µg/mL | Minimum inhibitory concentration [7]: 32 µg/mL | Minimum inhibitory concentration [8]: 128 µg/mL | Minimum inhibitory concentration [9]: 16 µg/mL | Minimum inhibitory concentration [10]: 64 µg/mL | Minimum inhibitory concentration [11]: 128 µg/mL | Minimum inhibitory concentration [12]: 8 µg/mL | Minimum inhibitory concentration [13]: 16 µg/mL | Minimum inhibitory concentration [14]: 16 µg/mL | Minimum inhibitory concentration [15]: 32 µg/mL | Minimum inhibitory concentration [16]: 32 µg/mL | Minimum inhibitory concentration [17]: 16 µg/mL | Minimum inhibitory concentration [18]: 32 µg/mL | Minimum inhibitory concentration [19]: 8 µg/mL | Minimum inhibitory concentration [20]: 32 µg/mL | Minimum inhibitory concentration [21]: 32 µg/mL | Minimum inhibitory concentration [22]: 128 µg/mL | Minimum inhibitory concentration [23]: 16 µg/mL | Minimum inhibitory concentration [24]: 32 µg/mL | Minimum inhibitory concentration [25]: 32 µg/mL | Minimum inhibitory concentration [26]: 32 µg/mL | Minimum inhibitory concentration [27]: 64 µg/mL | Minimum inhibitory concentration [28]: 32 µg/mL | Minimum inhibitory concentration [29]: >128 µg/mL | Minimum inhibitory concentration [30]: 16 µg/mL | Minimum inhibitory concentration [31]: 128 µg/mL | Minimum inhibitory concentration [32]: 32 µg/mL | Minimum inhibitory concentration [33]: 128 µg/mL | Minimum inhibitory concentration [34]: 16 µg/mL | Minimum inhibitory concentration [35]: 8 µg/mL | Minimum inhibitory concentration [36]: 16 µg/mL | Effective dose (ED50) ([37]; challenged with 331 LD50's): 21.8^2 mg/kg×2

CCNC1CC2OC(OC3OC(CO)C(N)C(O)C3O)C(NC)C(O)C2OC1OC1C(N)CC(N)C(O)C1O (stereo not drawn) [Test compound 4, 2′-N-ethylapramycin]
MIC [1, 38]: 16 µg/mL (≈ 28.2 µM) | MIC ([2]; Staphylococcus aureus, S13E, read-out: Minimum inhibitory concentration): 8 µg/mL (≈ 14.1 µM) | MIC [3, 39]: 8 µg/mL (≈ 14.1 µM) | MIC [4, 38]: 16 µg/mL (≈ 28.2 µM) | MIC [5, 38]: 16 µg/mL (≈ 28.2 µM) | MIC ([6]; D9960, read-out: Minimum inhibitory concentration): > 128 µg/mL | MIC [7, 40]: 16 µg/mL (≈ 28.2 µM) | MIC [8, 38]: 64 µg/mL (≈ 113 µM) | MIC [9, 41]: 8 µg/mL (≈ 14.1 µM) | MIC [10, 38]: 16 µg/mL (≈ 28.2 µM) | MIC [11, 38]: 32 µg/mL (≈ 56.4 µM) | MIC [12, 38]: 4 µg/mL (≈ 7.05 µM) | MIC [13, 42]: 8 µg/mL (≈ 14.1 µM) | MIC [14, 41]: 8 µg/mL (≈ 14.1 µM) | MIC [15, 40]: 16 µg/mL (≈ 28.2 µM) | MIC [16, 38]: 16 µg/mL (≈ 28.2 µM) | MIC [17, 38]: 8 µg/mL (≈ 14.1 µM) | MIC [18, 38]: 8 µg/mL (≈ 14.1 µM) | MIC [19, 38]: 2 µg/mL (≈ 3.52 µM) | MIC [20, 38]: 8 µg/mL (≈ 14.1 µM) | MIC [21, 38]: 8 µg/mL (≈ 14.1 µM) | MIC ([22]; Morganella morganii, read-out: Minimum inhibitory concentration): 32 µg/mL (≈ 56.4 µM) | MIC ([23]; Staphylococcus epidermidis, EPI1, read-out: Minimum inhibitory concentration): 8 µg/mL (≈ 14.1 µM) | MIC ([24]; Providencia alcalifaciens, read-out: Minimum inhibitory concentration): 8 µg/mL (≈ 14.1 µM) | MIC [25, 39]: 16 µg/mL (≈ 28.2 µM) | MIC ([26]; Streptococcus pneumoniae, read-out: Minimum inhibitory concentration): 16 µg/mL (≈ 28.2 µM) | MIC [27, 38]: 32 µg/mL (≈ 56.4 µM) | MIC [28, 42]: 8 µg/mL (≈ 14.1 µM) | MIC ([29]; DX66, read-out: Minimum inhibitory concentration): 128 µg/mL (≈ 225 µM) | MIC [30, 42]: 8 µg/mL (≈ 14.1 µM) | MIC [31, 38]: 64 µg/mL (≈ 113 µM) | MIC [32, 38]: 8 µg/mL (≈ 14.1 µM) | MIC [33, 38]: 32 µg/mL (≈ 56.4 µM) | MIC [34, 38]: 4 µg/mL (≈ 7.05 µM) | MIC ([35]; Escherichia coli, read-out: Minimum inhibitory concentration): 2 µg/mL (≈ 3.52 µM) | MIC [36, 38]: 8 µg/mL (≈ 14.1 µM) | ED50 ([37]; Staphylococcus aureus, 3055, sc, challenged with 68.1 LD50's, read-out: Effective dose (ED50)): < 4.35 mg/kg

2′-N-(S-γ-Amino-α-hydroxybutyryl)nebramine [Test compound 5]
Minimum inhibitory concentration [1]: 128 µg/mL | Minimum inhibitory concentration [2]: 32 µg/mL | Minimum inhibitory concentration [3]: 128 µg/mL | Minimum inhibitory concentration [4]: >128 µg/mL | Minimum inhibitory concentration [5]: 64 µg/mL | Minimum inhibitory concentration [6]: >128 µg/mL | Minimum inhibitory concentration [7]: 64 µg/mL | Minimum inhibitory concentration [8]: 128 µg/mL | Minimum inhibitory concentration [9]: 64 µg/mL | Minimum inhibitory concentration [10]: 64 µg/mL | Minimum inhibitory concentration [11]: 128 µg/mL | Minimum inhibitory concentration [12]: 64 µg/mL | Minimum inhibitory concentration [13]: 64 µg/mL | Minimum inhibitory concentration [14]: 32 µg/mL | Minimum inhibitory concentration [15]: 64 µg/mL | Minimum inhibitory concentration [16]: 128 µg/mL | Minimum inhibitory concentration [17]: 128 µg/mL | Minimum inhibitory concentration [18]: 64 µg/mL | Minimum inhibitory concentration [19]: 32 µg/mL | Minimum inhibitory concentration [20]: 64 µg/mL | Minimum inhibitory concentration [21]: 64 µg/mL | Minimum inhibitory concentration [22]: 64 µg/mL | Minimum inhibitory concentration [23]: 64 µg/mL | Minimum inhibitory concentration [24]: 64 µg/mL | Minimum inhibitory concentration [25]: 128 µg/mL | Minimum inhibitory concentration [26]: 128 µg/mL | Minimum inhibitory concentration [27]: >128 µg/mL | Minimum inhibitory concentration [28]: 64 µg/mL | Minimum inhibitory concentration [29]: >128 µg/mL | Minimum inhibitory concentration [30]: 64 µg/mL | Minimum inhibitory concentration [31]: >128 µg/mL | Minimum inhibitory concentration [32]: >128 µg/mL | Minimum inhibitory concentration [33]: >128 µg/mL | Minimum inhibitory concentration [34]: 32 µg/mL | Minimum inhibitory concentration [35]: 32 µg/mL | Minimum inhibitory concentration [36]: 128 µg/mL | Effective dose (ED50) ([37]; challenged with 1794 LD50's): >70^3 mg/kg×2
